From ChEMBL document CHEMBL1201862, “PubChem BioAssay data set” (2004)
Activity calls are given as the source filed them.

Key:
[1] = cells; type: functional, cell-based
[2] = cells; type: functional, cell-based; remark: listed apart in the source
[3] = target: T1, Long-chain-fatty-acid--AMP ligase FadD28 (Mycobacterium tuberculosis, UniProt P9WQ59); assay: Fluorescence polarization aasay to screen for inhibitors that compete for the binding of FadD28 to a bisubstrate Measured in Biochemical System Using Plate Reader - 2147-01_Inhibitor_Dose_CherryPick_Activity.; type: functional, Mycobacterium tuberculosis H37Rv
T1 sequence (P9WQ59 whole entry): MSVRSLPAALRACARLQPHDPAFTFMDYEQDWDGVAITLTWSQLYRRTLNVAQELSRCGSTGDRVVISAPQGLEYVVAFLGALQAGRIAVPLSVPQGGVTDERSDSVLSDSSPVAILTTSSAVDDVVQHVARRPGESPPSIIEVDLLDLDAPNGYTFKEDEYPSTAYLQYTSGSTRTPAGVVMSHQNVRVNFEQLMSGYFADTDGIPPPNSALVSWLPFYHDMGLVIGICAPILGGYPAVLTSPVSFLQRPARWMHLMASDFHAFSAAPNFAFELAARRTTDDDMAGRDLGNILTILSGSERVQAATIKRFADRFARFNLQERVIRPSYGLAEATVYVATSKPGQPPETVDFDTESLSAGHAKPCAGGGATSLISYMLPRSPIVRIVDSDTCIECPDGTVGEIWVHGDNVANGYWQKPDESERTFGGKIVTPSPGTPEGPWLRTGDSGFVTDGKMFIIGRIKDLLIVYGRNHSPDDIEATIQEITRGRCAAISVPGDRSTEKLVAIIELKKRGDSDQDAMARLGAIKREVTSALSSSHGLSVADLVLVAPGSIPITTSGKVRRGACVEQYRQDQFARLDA

[4] = tested on: SN12K1; assay: cells; type: functional; conditions: Homo sapiens
[5] = tested on: P388; assay: cells; type: functional; conditions: Mus musculus
[6] = tested on: P388/ADR; assay: cells; type: functional; conditions: Mus musculus
[7] = target: Cytochrome P450 3A4 (Homo sapiens, UniProt P08684);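 further: CYP3A4 tested as one member of a cytochrome P450 panel screen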
[8] = target: T2, Low molecular weight phosphotyrosine protein phosphatase (Homo sapiens, UniProt P24666); type: functional; conditions: read-out: IC50_Mean;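 further: Dose-response confirmation assay measuring inhibition of LMPTP enzyme activity by fluorescence intensity read-out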
T2 sequence (P24666 whole entry): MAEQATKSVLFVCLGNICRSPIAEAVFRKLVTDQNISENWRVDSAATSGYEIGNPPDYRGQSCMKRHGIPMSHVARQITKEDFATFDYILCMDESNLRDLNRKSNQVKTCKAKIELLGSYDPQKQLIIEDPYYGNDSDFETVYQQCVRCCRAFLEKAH

[9] = target: T3, Cytochrome P450 2D6 (Homo sapiens, UniProt P10635);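 further: CYP2D6 member of a cytochrome P450 panel assay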
[10] = target: Cytochrome P450 2C19 (Homo sapiens, UniProt P33261); assay: Cytochrome panel assay with activity outcomes. Panel member name: p450-cyp2c19 Compounds with AC50 equal or less than 10 uM are considered active; type: functional
[11] = Vero E6 cell cytotoxicity, dose response, cytotoxicity control for non-replicating M. tuberculosis project, secondary assay (AID 492998); type: functional, VeroE6; conditions: Vero C1008
[12] = target: T4, Cytochrome P450 1A2 (Homo sapiens, UniProt P05177);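 further: PubChem cytochrome P450 panel assay, CYP1A2 panel member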
T4 sequence (P05177 whole entry): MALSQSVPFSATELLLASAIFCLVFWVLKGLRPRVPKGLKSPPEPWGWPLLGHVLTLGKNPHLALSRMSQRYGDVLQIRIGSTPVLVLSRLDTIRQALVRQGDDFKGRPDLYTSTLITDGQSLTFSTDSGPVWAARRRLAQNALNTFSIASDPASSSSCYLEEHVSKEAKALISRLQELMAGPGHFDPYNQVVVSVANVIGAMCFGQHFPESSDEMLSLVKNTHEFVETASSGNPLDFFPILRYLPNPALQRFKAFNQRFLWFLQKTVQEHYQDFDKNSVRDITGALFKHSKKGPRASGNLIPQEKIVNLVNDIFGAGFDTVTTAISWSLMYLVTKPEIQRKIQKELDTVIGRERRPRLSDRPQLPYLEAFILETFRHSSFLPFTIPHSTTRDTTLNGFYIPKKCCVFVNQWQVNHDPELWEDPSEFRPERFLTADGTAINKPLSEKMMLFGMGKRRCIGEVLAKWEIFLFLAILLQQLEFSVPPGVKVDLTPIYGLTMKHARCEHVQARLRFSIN

[13] = tested on: Streptococcus; assay: GAS UMAA2166 growth inhibition – luminescence, BacTiterGlo, counter-screen for streptokinase expression inhibitor project, dose response (AID 1915); type: functional, organism-based;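 further: potency for reduction of bacterial viability or growth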
[14] = cells; type: functional
[15] = target: T3, Cytochrome P450 2D6; remark: listed apart in the source
[16] = target: Cytochrome P450 2C9 (Homo sapiens, UniProt P11712)
[17] = tested on: Streptococcus sp. 'group A'; assay: Streptococcus pyogenes SK(-)GAS viability under kanamycin – luminescence, BacTiterGlo, confirmation, counter-screen for streptokinase expression inhibitor project, dose response (AID 1900); type: functional, organism-based
[18] = THP-1 cell cytotoxicity, dose response, cytotoxicity control for non-replicating M. tuberculosis project (AID 489025); type: functional
[19] = target: T5, Heat shock factor protein 1 (Mus musculus, UniProt P38532); assay: enhancement of HSF1-driven luciferase signal – cell-based, NIH3T3, luminescence, dose retest, confirmation (AID 435004); type: functional;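 further: stress induced by proteasome inhibitor MG132 added 30 min after compound; luciferase reporter driven by HSF1 response element in NIH3T3 cells; actives raise luminescence as potentiators of the MG132 stress response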
T5 sequence (P38532 whole entry): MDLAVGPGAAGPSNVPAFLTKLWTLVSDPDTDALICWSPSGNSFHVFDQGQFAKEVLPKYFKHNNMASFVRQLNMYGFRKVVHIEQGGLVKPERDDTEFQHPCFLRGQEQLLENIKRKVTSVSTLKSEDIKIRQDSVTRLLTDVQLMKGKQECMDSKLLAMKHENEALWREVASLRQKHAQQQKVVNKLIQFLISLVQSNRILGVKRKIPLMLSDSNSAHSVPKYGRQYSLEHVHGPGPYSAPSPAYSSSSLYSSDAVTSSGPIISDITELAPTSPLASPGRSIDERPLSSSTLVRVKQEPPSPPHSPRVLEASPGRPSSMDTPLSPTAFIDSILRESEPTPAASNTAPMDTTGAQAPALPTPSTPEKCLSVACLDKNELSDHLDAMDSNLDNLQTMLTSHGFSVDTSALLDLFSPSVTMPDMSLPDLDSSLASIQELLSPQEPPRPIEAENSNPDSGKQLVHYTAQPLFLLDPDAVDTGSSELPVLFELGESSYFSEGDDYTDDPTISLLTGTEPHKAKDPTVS

[20] = target: Glucose-6-phosphate 1-dehydrogenase (Homo sapiens, UniProt P11413); assay: inhibition of Homo sapiens G6PD, dose series – biochemical, fluorescence, selectivity assay for P. falciparum G6PD inhibitor project, dose response (AID 504792); type: functional
[21] = viability of uninfected HEp-2 cells – cell-based, HTS, cytotoxicity control for RSV inhibitor project, dose response (AID 2410); type: functional; conditions: human respiratory syncytial virus
[22] = target: T6, Carboxy-terminal domain RNA polymerase II polypeptide A small phosphatase 1 (Homo sapiens, UniProt Q9GZU7); assay: CTDSP1 inhibitors, concentration-response, biochemical, absorbance readout, ultra-high-throughput screen actives (AID 540297); type: functional
T6 sequence (Q9GZU7 whole entry): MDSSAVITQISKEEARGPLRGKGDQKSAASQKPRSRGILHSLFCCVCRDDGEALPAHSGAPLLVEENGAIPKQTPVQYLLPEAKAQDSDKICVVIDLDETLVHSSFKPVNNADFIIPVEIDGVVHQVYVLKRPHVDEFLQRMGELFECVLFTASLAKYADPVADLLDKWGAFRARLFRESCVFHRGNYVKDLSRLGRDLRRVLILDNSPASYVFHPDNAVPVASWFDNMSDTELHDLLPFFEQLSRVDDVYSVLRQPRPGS

[23] = target: Dual specificity tyrosine-phosphorylation-regulated kinase 1A (Rattus norvegicus, UniProt Q63470); type: biochemical, Homo sapiens
[24] = blockers of bursicon-stimulated LGR2 cAMP reporter – cell-based, HEK293, CRE-luciferase reporter, cherry pick, set 2, dose response (AID 743343); type: functional;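 further: transfected cells were stimulated with diluted bursicon conditioned medium after compound addition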
[25] = blockade of melanocortin 4 receptor signaling – cell-based, plate reader, cherry pick, counter-screen for LGR2 antagonist project, dose response (AID 743444); type: functional;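 further: transfected HEK 293 cells stimulated with alpha-MSH peptide; potency of inhibitors of the alpha-MSH evoked signal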
[26] = A549 cell cytotoxicity, dose response, cytotoxicity control, plate reader, cherry-pick, antagonist series (AID 743412); type: functional, cell-based
[27] = general cell-killing toxicity readout – plate reader, dry powder samples, cytotoxicity control for PAX8 inhibitor project, dose response (AID 743021); type: functional, cell-based
[28] = target: Luciferin 4-monooxygenase (Photinus pyralis, UniProt P08659); assay: inhibition of purified Photinus pyralis luciferase – biochemical, luminescence, dose response (AID 1891)
[29] = Luminescence Cell-Based Dose Confirmation HTS to Identify Inhibitors of Platelet Dense Granule Release. [Related pubchem assays: 1663 (Primary HTS), 1678 (Summary of Project)]; type: functional

T3 sequence (P10635 whole entry): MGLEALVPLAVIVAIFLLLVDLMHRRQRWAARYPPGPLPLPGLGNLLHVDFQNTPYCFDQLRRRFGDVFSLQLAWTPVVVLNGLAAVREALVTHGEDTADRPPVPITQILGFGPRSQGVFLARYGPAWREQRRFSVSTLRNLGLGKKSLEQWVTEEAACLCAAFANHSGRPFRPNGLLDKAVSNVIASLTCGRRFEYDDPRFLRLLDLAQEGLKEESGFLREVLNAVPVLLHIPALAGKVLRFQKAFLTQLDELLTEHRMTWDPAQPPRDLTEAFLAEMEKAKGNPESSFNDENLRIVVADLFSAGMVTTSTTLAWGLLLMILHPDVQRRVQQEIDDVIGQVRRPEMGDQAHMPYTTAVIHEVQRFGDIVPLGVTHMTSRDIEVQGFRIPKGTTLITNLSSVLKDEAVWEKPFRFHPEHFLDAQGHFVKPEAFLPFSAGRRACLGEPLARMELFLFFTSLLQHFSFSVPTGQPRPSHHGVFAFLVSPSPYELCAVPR
Cytochrome P450 2C19, sequence (P33261 whole entry): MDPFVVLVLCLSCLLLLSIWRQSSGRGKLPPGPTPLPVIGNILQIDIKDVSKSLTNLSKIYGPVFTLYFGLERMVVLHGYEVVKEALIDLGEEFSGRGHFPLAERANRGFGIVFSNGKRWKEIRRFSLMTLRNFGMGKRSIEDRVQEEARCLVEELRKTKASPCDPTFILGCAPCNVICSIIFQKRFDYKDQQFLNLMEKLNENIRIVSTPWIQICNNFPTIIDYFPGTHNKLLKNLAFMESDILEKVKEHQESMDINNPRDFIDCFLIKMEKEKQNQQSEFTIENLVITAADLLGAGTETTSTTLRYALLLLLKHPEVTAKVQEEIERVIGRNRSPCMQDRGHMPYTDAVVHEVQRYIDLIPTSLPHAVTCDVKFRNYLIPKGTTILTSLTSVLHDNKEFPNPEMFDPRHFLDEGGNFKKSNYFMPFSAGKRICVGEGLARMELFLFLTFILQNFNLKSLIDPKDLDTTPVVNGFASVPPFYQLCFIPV
Cytochrome P450 3A4, sequence (P08684 whole entry): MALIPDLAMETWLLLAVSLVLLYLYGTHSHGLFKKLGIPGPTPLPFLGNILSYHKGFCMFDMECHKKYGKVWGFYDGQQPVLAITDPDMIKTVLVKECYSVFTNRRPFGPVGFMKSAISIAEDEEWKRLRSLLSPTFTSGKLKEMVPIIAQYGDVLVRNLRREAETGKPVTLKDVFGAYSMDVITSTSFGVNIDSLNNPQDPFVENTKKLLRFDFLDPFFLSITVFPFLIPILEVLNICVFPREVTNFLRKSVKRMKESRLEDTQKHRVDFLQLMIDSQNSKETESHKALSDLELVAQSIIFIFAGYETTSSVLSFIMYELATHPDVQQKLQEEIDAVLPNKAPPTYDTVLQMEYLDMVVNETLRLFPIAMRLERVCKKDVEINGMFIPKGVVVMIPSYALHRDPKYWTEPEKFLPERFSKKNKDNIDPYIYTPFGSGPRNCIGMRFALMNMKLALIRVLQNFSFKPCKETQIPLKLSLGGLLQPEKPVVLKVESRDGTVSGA
Glucose-6-phosphate 1-dehydrogenase, sequence (P11413 whole entry): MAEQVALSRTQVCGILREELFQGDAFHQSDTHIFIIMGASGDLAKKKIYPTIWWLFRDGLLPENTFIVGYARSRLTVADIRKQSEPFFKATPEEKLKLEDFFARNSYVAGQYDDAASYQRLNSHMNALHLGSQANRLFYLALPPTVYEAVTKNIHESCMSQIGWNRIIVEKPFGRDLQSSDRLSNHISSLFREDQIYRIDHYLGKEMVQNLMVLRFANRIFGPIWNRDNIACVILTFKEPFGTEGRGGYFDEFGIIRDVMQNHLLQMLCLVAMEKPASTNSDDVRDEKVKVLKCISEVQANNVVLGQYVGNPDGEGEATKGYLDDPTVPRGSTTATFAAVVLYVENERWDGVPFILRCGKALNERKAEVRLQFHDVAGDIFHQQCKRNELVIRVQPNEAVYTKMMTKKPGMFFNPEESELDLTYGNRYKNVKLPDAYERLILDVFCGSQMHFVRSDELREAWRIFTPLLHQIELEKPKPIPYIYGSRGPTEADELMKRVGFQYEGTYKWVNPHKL
Cytochrome P450 2C9, sequence (P11712 whole entry): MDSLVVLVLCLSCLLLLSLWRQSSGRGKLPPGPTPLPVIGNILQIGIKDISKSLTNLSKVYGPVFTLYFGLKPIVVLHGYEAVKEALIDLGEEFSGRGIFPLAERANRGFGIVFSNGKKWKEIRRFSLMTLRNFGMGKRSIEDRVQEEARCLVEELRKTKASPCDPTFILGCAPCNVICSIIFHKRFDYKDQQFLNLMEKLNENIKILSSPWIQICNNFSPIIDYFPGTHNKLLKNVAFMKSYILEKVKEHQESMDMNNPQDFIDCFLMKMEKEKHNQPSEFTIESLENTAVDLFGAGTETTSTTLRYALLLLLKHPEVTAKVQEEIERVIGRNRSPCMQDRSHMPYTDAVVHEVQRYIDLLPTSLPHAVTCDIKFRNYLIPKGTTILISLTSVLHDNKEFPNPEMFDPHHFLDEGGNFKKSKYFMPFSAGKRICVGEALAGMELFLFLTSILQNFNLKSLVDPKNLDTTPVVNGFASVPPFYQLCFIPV
Luciferin 4-monooxygenase, sequence (P08659 whole entry): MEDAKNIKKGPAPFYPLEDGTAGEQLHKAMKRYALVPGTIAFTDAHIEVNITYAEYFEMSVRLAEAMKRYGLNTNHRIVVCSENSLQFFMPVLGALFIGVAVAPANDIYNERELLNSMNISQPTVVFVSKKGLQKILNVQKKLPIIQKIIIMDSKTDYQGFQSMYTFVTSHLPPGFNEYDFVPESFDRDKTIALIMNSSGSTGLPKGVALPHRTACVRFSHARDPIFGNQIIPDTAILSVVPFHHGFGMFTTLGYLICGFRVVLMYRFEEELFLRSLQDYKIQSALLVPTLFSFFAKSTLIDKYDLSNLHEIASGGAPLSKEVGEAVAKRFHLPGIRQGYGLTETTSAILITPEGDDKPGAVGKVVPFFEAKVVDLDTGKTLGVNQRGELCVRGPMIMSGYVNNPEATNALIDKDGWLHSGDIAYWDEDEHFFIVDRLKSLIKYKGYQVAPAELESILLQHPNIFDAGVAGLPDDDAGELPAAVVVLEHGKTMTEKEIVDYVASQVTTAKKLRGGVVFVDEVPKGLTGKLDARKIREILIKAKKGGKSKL

Structure (SMILES): NCc1c(O)ccc2ccccc12
- IC50 [1]: > 29.9 µM (inactive)
- EC50 [2]: > 29.9 µM (inactive)

Structure (SMILES): C=CCn1cc(CN2CCC(C(=O)Nc3ccc(Oc4cccnc4)cc3)CC2)c(C)n1
- AC50 [3]: 21 µM (active)

Structure (SMILES): O=c1cc(Nc2ccc3c(c2)OCCO3)[nH]c(=O)n1C1CCCCC1
- AC50 [3]: 61.1 µM (active)

Structure (SMILES): C[C@H](N)C(=O)N[C@@H]1[C@H]2C(=C(O)C[C@@H](O)[C@@H]2O)C(=O)O[C@]1(C)C(Cl)Cl [BACTOBOLIN]
- GI50 [4]: 0.297 µM (active)
- GI50 [5]: 0.0807 µM (active)
- GI50 [6]: 0.303 µM (active)

Structure (SMILES): COC(=O)[C@](C)(N)Cc1ccc(O)cc1
- AC50 [7]: inconclusive

Structure (SMILES): O=C(O)c1ccc(/C=N/NC(=O)c2cc3c(ccc4ccccc43)o2)cc1
- IC50 [8]: 16.2 µM (active)

Structure (SMILES): COC(=O)c1ccc(NC(=O)N2CCC(O)(c3cccnc3)CC2)cc1
- AC50 [9]: 15.8 µM (inconclusive)
- AC50 [7]: inconclusive
- AC50 [10]: inconclusive

Structure (SMILES): COc1cccc2sc(NN)nc12
- AC50 [3]: > 100 µM (inactive)

Structure (SMILES): CN(C)S(=O)(=O)c1ccc(C(=O)NCC(=O)N/N=C/c2ccccc2)cc1
- IC50 [1]: > 29.9 µM (inactive)
- EC50 [2]: > 29.9 µM (inactive)

Structure (SMILES): Cc1cccc(NC(=O)CN2C(=O)S/C(=C\c3cc(C)n(C)c3C)C2=O)c1
- AC50 [3]: 0.381 µM (active)

Structure (SMILES): CC1C(=O)C(C)C(c2ccccc2)N(N=O)C1c1ccccc1 (stereo not drawn)
- GI50 [4]: 42.8 µM (inactive)
- GI50 [5]: > 100 µM (inactive)
- GI50 [6]: > 100 µM (inactive)

Structure (SMILES): CC1=CCCC2C1(C)CCC(C)C2(C)Cc1cc(O)ccc1O (stereo not drawn)
- GI50 [4]: 4.2 µM (inactive)
- GI50 [5]: 1.37 µM (inactive)
- GI50 [6]: 1.63 µM (inactive)

Structure (SMILES): CCC(CC)c1nnc(NC(=O)c2ccc3ccccc3n2)s1
- CC50 [11]: 18.4 µM (active)
- AC50 [12]: 2.51 µM (active)
- AC50 ([10]; read-out: AC50): 28.2 µM (active)
- EC50 [13]: 12.5 µM (active)
- IC50 [14]: 0.42 µM (active)
- AC50 [15]: inactive
- AC50 [16]: 7.94 µM (active)
- EC50 [17]: 8.53 µM (active)
- CC50 [18]: > 40 µM (active)

Structure (SMILES): O=C1CN(C(=O)c2ccc(Br)o2)C(c2ccc(F)cc2)c2cc(Cl)ccc2N1 (stereo not drawn)
- EC50 [19]: > 260 µM (inactive)
- AC50 [12]: 0.0631 µM (inconclusive)
- AC50 [7]: inconclusive

Structure (SMILES): Cc1ccc(-c2csc(NC(=O)c3ccc(Br)cc3)c2C(=O)O)cc1
- IC50 [20]: > 80 µM (inactive)

Structure (SMILES): CN(C)CCN1C(=O)c2cccc3cc(N)cc(c23)C1=O [AMONAFIDE]
- GI50 [4]: 2.15 µM (inactive)
- GI50 [5]: 0.524 µM (active)
- GI50 [6]: 1.14 µM (inactive)

Structure (SMILES): CC(C)c1ccc(/C=C2\SC(=O)N(CC(=O)NC3C=CS(=O)(=O)C3)C2=O)cc1 (stereo not drawn)
- CC50 [21]: 18.8 µM (active)
- IC50 [22]: 11.8 µM (active)

Structure (SMILES): CN(C)S(=O)(=O)c1ccc(NC(=O)Cc2ccc(S(=O)(=O)N3CCOCC3)s2)cc1
- IC50 [22]: 9.34 µM (active)

Structure (SMILES): CCCCN.N#C/C(=C\c1ccc(O)cc1)C(=O)O
- AC50 [23]: 3.24 µM (active)

Structure (SMILES): COc1cc2c(cc1NC(=O)CSc1nc3ccccc3[nH]1)oc1ccccc12
- IC50 [22]: 17.1 µM (active)

Structure (SMILES): Cc1ccc(/C=N/NC(=O)c2cccs2)cc1[N+](=O)[O-]
- AC50 [9]: 0.0251 µM (inconclusive)
- AC50 [7]: inconclusive
- AC50 ([10]; read-out: AC50): 31.6 µM (inconclusive)

Structure (SMILES): Cc1ccc2[nH]c(-c3ccc(NC(=O)C4CCCO4)cc3)nc2c1 (stereo not drawn)
- AC50 [24]: 5.48 µM (active)
- AC50 [25]: 11.9 µM (active)
- AC50 [26]: > 52 µM (inactive)

Structure (SMILES): COc1cccc(CC(=O)Nc2nc3c(s2)C(=O)CC(C)(C)C3)c1
- AC50 [27]: 41.9 µM (active)
- EC50 [28]: > 112 µM (not active)
- EC50 [29]: > 112 µM (not active)

Structure (SMILES): O=P1(NCCCl)OCCCN1CCCl (stereo not drawn) [IFOSFAMIDE]
- GI50 [4]: 371 µM (inactive)
- GI50 [5]: 232 µM (inactive)
- GI50 [6]: 215 µM (inactive)

Structure (SMILES): O=C(CNC(=O)c1ccco1)OCC(=O)c1ccc([N+](=O)[O-])cc1
- IC50 [20]: > 80 µM (inactive)

Structure (SMILES): COc1ccc(C(=O)N2CCC3(CC2)CCN(c2ncccn2)CC3)cc1
- AC50 [9]: 20 µM (inconclusive)
- AC50 [7]: inconclusive
